This passage reports IC50 results from patent US12264134B2 (Merck Sharp & Dohme LLC, priority 2018, dated 2025).

Assay [1] deals with T1, IDO1 (Homo sapiens, UniProt P14902). In words: IDO1 Cellular Assay in HeLa Cells Stimulated with IFNγ. Conditions: read-out: HeLa Cell Potency, IC50. Type of assay: cell-based.
For assay [2], the target named is T1, IDO1. In words: IDO1 Human Whole blood Assay. The class given is cell-based. Conditions: LPS and IFNγ stimulated, 18 h, read-out: Human Whole Blood Potency, IC50. Details: Human whole blood was drawn in sodium heparin coated tubes from healthy internal donors; from tissue; host or cells: human whole blood from healthy donors, stimulated with LPS and IFNγ. Put shortly: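 Heparinized healthy-donor human whole blood was preincubated 15 min with compound, then stimulated with LPS and IFNγ (100 ng/mL final) for 18 h at 37 °C. Plasma kynurenine was quantified by LC/MS/MS against a D6-kynurenine internal standard, and IC50s came from 4-parameter sigmoidal fits.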

T1 sequence (P14902 whole entry): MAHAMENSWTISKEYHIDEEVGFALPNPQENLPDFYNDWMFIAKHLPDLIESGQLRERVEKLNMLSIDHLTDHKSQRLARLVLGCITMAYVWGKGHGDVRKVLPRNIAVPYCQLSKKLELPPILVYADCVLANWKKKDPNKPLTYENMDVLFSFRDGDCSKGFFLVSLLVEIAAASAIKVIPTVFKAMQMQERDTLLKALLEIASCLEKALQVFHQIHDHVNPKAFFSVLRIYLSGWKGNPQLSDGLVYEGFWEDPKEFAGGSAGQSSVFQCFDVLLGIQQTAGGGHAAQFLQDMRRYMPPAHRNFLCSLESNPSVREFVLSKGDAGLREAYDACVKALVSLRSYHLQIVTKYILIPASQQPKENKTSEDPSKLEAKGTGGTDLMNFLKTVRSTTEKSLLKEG

One may read the IC50 as the midpoint of a concentration-inhibition curve. Regarding `Cc1cccc(N2CCN(C(=O)Cn3nc(C(=O)N4CCC(O)(CF)CC4)c4c3C[C@H]3C[C@@H]43)CC2)c1C` [Example 276, 1-[4-(2,3-dimethylphenyl)piperazin-1-yl]-2-{(3bR,4aR)-3-[4-(fluoromethyl)-4-hydroxypiperidine-1-carbonyl]-3b,4,4a,5-tetrahydro-1H-cyclopropa[3,4]cyclopenta[1,2-c]pyrazol-1-yl}ethan-1-one], the IC50 on IDO1 [1] was determined as 2.03 nM; at IDO1 [2], 109 nM.
Turning to `Cc1cccc(N2CCN(C(=O)Cn3nc(C(=O)N4CC[C@@H](O)[C@H](F)C4)c4c3C[C@H]3C[C@@H]43)CC2)c1C` [Example 279, 1-[4-(2,3-dimethylphenyl)piperazin-1-yl]-2-{(3bR,4aR)-3-[(3R,4R)-3-fluoro-4-hydroxypiperidine-1-carbonyl]-3b,4,4a,5-tetrahydro-1H-cyclopropa[3,4]cyclopenta[1,2-c]pyrazol-1-yl}ethan-1-one], the IC50 was 0.59 nM at IDO1 [1] and 70 nM at IDO1 [2].
In the same order, the values of `Cc1cccc(N2CCN(C(=O)Cn3nc(C(=O)N4CC[C@H](O)[C@H](C)C4)c4c3C[C@H]3C[C@@H]43)CC2)c1C` [Example 280, 1-[4-(2,3-dimethylphenyl)piperazin-1-yl]-2-{(3bR,4aR)-3-[(3R,4S)-4-hydroxy-3-methylpiperidine-1-carbonyl]-3b,4,4a,5-tetrahydro-1H-cyclopropa[3,4]cyclopenta[1,2-c]pyrazol-1-yl}ethan-1-one] are 0.79 nM and 127 nM.
In the same order, the values of `Cc1cccc(N2CCN(C(=O)Cn3nc(C(=O)N4CC[C@@H](O)[C@@H](C)C4)c4c3C[C@H]3C[C@@H]43)CC2)c1C` [Example 281, 1-[4-(2,3-dimethylphenyl)piperazin-1-yl]-2-{(3bR,4aR)-3-[(3S,4R)-4-hydroxy-3-methylpiperidine-1-carbonyl]-3b,4,4a,5-tetrahydro-1H-cyclopropa[3,4]cyclopenta[1,2-c]pyrazol-1-yl}ethan-1-one] are 0.97 nM and 294 nM.
Regarding `Cc1cccc(N2CCN(C(=O)Cn3nc(C(=O)N4C[C@@H](C)O[C@@H](C)C4)c4c3C[C@H]3C[C@@H]43)CC2)c1C` [Example 283, 2-{(3bR,4aR)-3-[(2R,6S)-2,6-dimethylmorpholine-4-carbonyl]-3b,4,4a,5-tetrahydro-1H-cyclopropa[3,4]cyclopenta[1,2-c]pyrazol-1-yl}-1-[4-(2,3-dimethylphenyl)piperazine-1-yl]ethan-1-one], the IC50 at IDO1 [1] came out at 1.13 nM; on IDO1 [2], 163 nM.
In the case of `Cc1cccc(N2CCN(C(=O)Cn3nc(C(=O)N4CC[C@@H](O)[C@H](C)C4)c4c3C[C@H]3C[C@@H]43)CC2)c1C` [Example 284, 1-[4-(2,3-dimethylphenyl)piperazin-1-yl]-2-{(3bR,4aR)-3-[(3R,4R)-4-hydroxy-3-methylpiperidine-1-carbonyl]-3b,4,4a,5-tetrahydro-1H-cyclopropa[3,4]cyclopenta[1,2-c]pyrazol-1-yl}ethan-1-one], the IC50 at IDO1 [1] amounted to 1.14 nM; at IDO1 [2] it was 403 nM.
The matching figures for `Cc1cccc(N2CCN(C(=O)Cn3nc(C(=O)N4CCN(C(=O)CO)CC4)c4c3C[C@H]3C[C@@H]43)CC2)c1C` [Example 285, 1-[4-(2,3-dimethylphenyl)piperazin-1-yl]-2-{(3bR,4aR)-3-[4-(hydroxyacetyl)piperazine-1-carbonyl]-3b,4,4a,5-tetrahydro-1H-cyclopropa[3,4]cyclopenta[1,2-c]pyrazol-1-yl}ethan-1-one]: 1.46 nM and 58 nM.
Take `Cc1cccc(N2CCN(C(=O)Cn3nc(C(=O)N4CCC(F)(CO)CC4)c4c3C[C@H]3C[C@@H]43)CC2)c1C` [Example 286, 1-[4-(2,3-dimethylphenyl)piperazin-1-yl]-2-{(3bR,4aR)-3-[4-fluoro-4-(hydroxymethyl)piperidine-1-carbonyl]-3b,4,4a,5-tetrahydro-1H-cyclopropa[3,4]cyclopenta[1,2-c]pyrazol-1-yl}ethan-1-one]: the IC50 on IDO1 [1] turned out to be 1.52 nM; at IDO1 [2] it was 44 nM.
In the same order, the values of `Cc1cccc(N2CCN(C(=O)Cn3nc(C(=O)N4CC[C@@H](O)[C@@H](F)C4)c4c3C[C@H]3C[C@@H]43)CC2)c1C` [Example 288, 1-[4-(2,3-dimethylphenyl)piperazin-1-yl]-2-{(3bR,4aR)-3-[(3S,4R)-3-fluoro-4-hydroxypiperidine-1-carbonyl]-3b,4,4a,5-tetrahydro-1H-cyclopropa[3,4]cyclopenta[1,2-c]pyrazol-1-yl}ethan-1-one] are 1.71 nM and 100 nM.
Regarding `Cc1cccc(N2CCN(C(=O)Cn3nc(C(=O)N4CC[C@H](O)[C@H](F)C4)c4c3C[C@H]3C[C@@H]43)CC2)c1C` [Example 289, 1-[4-(2,3-dimethylphenyl)piperazin-1-yl]-2-{(3bR,4aR)-3-[(3R,4S)-3-fluoro-4-hydroxypiperidine-1-carbonyl]-3b,4,4a,5-tetrahydro-1H-cyclopropa[3,4]cyclopenta[1,2-c]pyrazol-1-yl}ethan-1-one], the IC50 amounted to 1.95 nM at IDO1 [1] and 180 nM at IDO1 [2].
The matching figures for `Cc1cccc(N2CCN(C(=O)Cn3nc(C(=O)N4CC[C@@H](O)C[C@@H]4C)c4c3C[C@H]3C[C@@H]43)CC2)c1C` [Example 290, 1-[4-(2,3-dimethylphenyl)piperazin-1-yl]-2-{(3bR,4aR)-3-[(2S,4R)-4-hydroxy-2-methylpiperidine-1-carbonyl]-3b,4,4a,5-tetrahydro-1H-cyclopropa[3,4]cyclopenta[1,2-c]pyrazol-1-yl}ethan-1-one]: 2.03 nM and 771 nM.
`Cc1cccc(N2CCN(C(=O)Cn3nc(C(=O)N4CC[C@H](O)[C@@H](F)C4)c4c3C[C@H]3C[C@@H]43)CC2)c1C` [Example 291, 1-[4-(2,3-dimethylphenyl)piperazin-1-yl]-2-{(3bR,4aR)-3-[(3S,4S)-3-fluoro-4-hydroxypiperidine-1-carbonyl]-3b,4,4a,5-tetrahydro-1H-cyclopropa[3,4]cyclopenta[1,2-c]pyrazol-1-yl}ethan-1-one]: the IC50 at IDO1 [1] came to 2.79 nM; at IDO1 [2] it was 212 nM.
The matching figures for `Cc1cccc(N2CCN(C(=O)Cn3nc(C(=O)N4CCC(F)(CO)CC4)c4c3CCC4)CC2)c1C` [Example 293, 1-[4-(2,3-dimethylphenyl)piperazin-1-yl]-2-{3-[4-fluoro-4-(hydroxymethyl)piperidine-1-carbonyl]-5,6-dihydrocyclopenta[c]pyrazol-1(4H)-yl}ethan-1-one]: 5.46 nM and 178 nM.
In the same order, the values of `Cc1cccc(N2CCN(C(=O)Cn3nc(C(=O)N4C[C@@H](C)O[C@@H](C)C4)c4c3[C@H]3C[C@H]3C4)CC2)c1C` [Example 294, 2-{(4aS,5aS)-3-[(2R,6S)-2,6-dimethylmorpholine-4-carbonyl]-4,4a,5,5a-tetahydro-1H-cyclopropa[4,5]cyclopenta[1,2-c]pyrazol-1-yl}-1-[4-(2,3-dimethylphenyl)piperazin-1-yl]ethan-1-one] are 5.59 nM and 1450 nM.
In the same order, the values of `Cc1cccc(N2CCN(C(=O)Cn3nc(C(=O)N4C[C@@H](C)O[C@@H](C)C4)c4c3[C@@H]3C[C@@H]3C4)CC2)c1C` [Example 296, 2-{(4aR,5aR)-3-[(2R,6S)-2,6-dimethylmorpholine-4-carbonyl]-4,4a,5,5a-tetrahydro-1H-cyclopropa[4,5]cyclopenta[1,2-c]pyrazol-1-yl}-1-[4-(2,3-dimethylphenyl)piperazin-1-yl]ethan-1-one] are 7.99 nM and 543 nM.
`Cc1cccc(N2CCN(C(=O)Cn3nc(C(=O)N4CCC5(CO)CC4C5)c4c3CCC4)CC2)c1C` [Example 297, 1-[4-(2,3-dimethylphenyl)piperazin-1-yl]-2-{3-[5-(hydroxymethyl)-2-azabicyclo[3.1.1]heptane-2-carbonyl]-5,6-dihydrocyclopenta[c]pyrazol-1(4H)-yl}ethan-1-one]: the IC50 was found to be 11.3 nM on IDO1 [1] and 1220 nM at IDO1 [2].
For the molecule `Cc1c(Cl)cccc1N1CCN(C(=O)Cn2nc(C(=O)N3CCC(F)(CN)CC3)c3c2C[C@H]2C[C@@H]32)C2(CC2)C1` [Example 314, 2-{(3bR,4aR)-3-[4-(aminomethyl)-4-fluoropiperidine-1-carbonyl]-3b,4,4a,5-tetrahydro-1H-cyclopropa[3,4]cyclopenta[1,2-c]pyrazol-1-yl}-1-[7-(3-chloro-2-methylphenyl)-4,7-diazaspiro[2.5]octan-4-yl]ethan-1-one], the figures for the IC50 on IDO1 [1] and on IDO1 [2] were 4.88 nM and 846 nM, respectively.
The matching figures for `Cc1c(Cl)cccc1N1CCN(C(=O)Cn2nc(C(=O)N3CC[C@H](N)[C@@H](F)C3)c3c2C[C@H]2C[C@@H]32)C2(CC2)C1` [Example 315, 2-{(3bR,4aR)-3-[(3S,4S)-4-amino-3-fluoropiperidine-1-carbonyl]-3b,4,4a,5-tetrahydro-1H-cyclopropa[3,4]cyclopenta[1,2-c]pyrazol-1-yl}-1-[7-(3-chloro-2-methylphenyl)-4,7-diazaspiro[2.5]octan-4-yl]ethan-1-one]: 3.21 nM and 272 nM.
Take `Cc1c(F)ccc(N2CCN(C(=O)Cn3nc(C(=O)N4CC[C@H](O)[C@H](F)C4)c4c3C[C@H]3C[C@@H]43)C3(CC3)C2)c1C` [Example 317, 1-[7-(4-fluoro-2,3-dimethylphenyl)-4,7-diazaspiro[2.5]octan-4-yl]-2-{(3bR,4aR)-3-[(3R,4S)-3-fluoro-4-hydroxypiperidine-1-carbonyl]-3b,4,4a,5-tetrahydro-1H-cyclopropa[3,4]cyclopenta[1,2-c]pyrazol-1-yl}ethan-1-one]: the IC50 at IDO1 [1] came to 1.65 nM; on IDO1 [2], 205 nM.
